# Data taken from US20250388605A1, “HETEROBIFUNCTIONAL COMPOUNDS AND METHODS OF TREATING DISEASE” (Halda Therapeutics OpCo, Inc., priority 2022, published 2025).
# How the values were obtained:
# [1] = tested on: T-Rex 293 cell line SC3 cells having increased expression of androgen receptor protein due to exposure to doxycycline; assay: Cellular growth inhibition, T-Rex 293 SC3 cells with doxycycline (increased androgen receptor expression), CellTiter-Glo; format: cell-based; conditions: T-Rex 293 SC3 cells with 10 ng/mL doxycycline (increased androgen receptor expression), 72 hours, CellTiter-Glo 2.0
# Procedure, shortened: (§1)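 Growth inhibition is measured in an inducible AR-expressing T-Rex 293 clone, SC3, cultured with or without 10 ng/mL doxycycline in hormone-depleted medium. Test compounds are applied for 72 hours. GI50 values derive from CellTiter-Glo 2.0 signal fitted by four-parameter regression.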
# [2] = tested on: T-Rex 293 cell line SC3 cells lacking increased expression of androgen receptor protein; assay: Cellular growth inhibition, T-Rex 293 SC3 cells without doxycycline (no increased androgen receptor expression), CellTiter-Glo; format: cell-based; conditions: T-Rex 293 SC3 cells not exposed to doxycycline (no increased androgen receptor expression), 72 hours
# Procedure, shortened: as §1
# [3] = tested on: VCaP cells; assay: Cellular growth inhibition assay for VCaP cells, CellTiter-Glo; format: cell-based, human; conditions: 72 hours
# Procedure, shortened: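 GI50 values come from four-parameter curve fits of luminescence data normalized to a zero baseline. Compound, in medium with 0.5% DMSO, was added one day after plating and left for 72 h before CellTiter-Glo 2.0 addition.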
# [4] = tested on: T47D cells; assay: Cellular Growth Inhibition Assay for T47D Cells (CellTiter-Glo); format: cell-based, human; conditions: 72 hours
# Procedure, shortened: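 GI50 values derive from four-parameter regression of CellTiter-Glo 2.0 luminescence, using zero luminescence as baseline. Human breast cancer T47D cells (3000/well; DMEM, 10% FBS, 0.2 units/mL insulin) were exposed for 72 h to compound dilutions at 0.5% DMSO, with dosing starting 24 h after seeding.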
SMILES,GI50 [3],GI50 [4],GI50 ([3]; Homo sapiens),GI50 ([4]; Homo sapiens),GI50 [1],GI50 [2]
CCS(=O)(=O)c1ccc(OC(CCCCOC2CCN(c3ncc(C(=O)N[C@H]4C(C)(C)[C@H](Oc5ccc(C#N)c(Cl)c5)C4(C)C)cn3)CC2)C2CC2)c(-c2cn(C)c(=O)c3[nH]ccc23)c1 (stereo partly shown) [Compound I-234],< 500 nM,< 500 nM,,,< 500 nM,< 500 nM
Cn1cc(-c2cc(C(C)(C)O)ccc2OCC(CCCN2CCN(c3ncc(C(=O)N[C@H]4C(C)(C)[C@H](Oc5ccc(C#N)c(Cl)c5)C4(C)C)cn3)CC2)C2CC2)c2cc[nH]c2c1=O (stereo partly shown) [Compound I-237],,,500 to 1500 nM,500 to 1500 nM,< 500 nM,500 to 1500 nM
Cn1cc(-c2cc(C(C)(C)O)ccc2Oc2ccc(F)c(OCCN3CC4(C3)CN(c3ncc(C(=O)N[C@H]5C(C)(C)[C@H](Oc6ccc(C#N)c(Cl)c6)C5(C)C)cn3)C4)c2F)c2cc[nH]c2c1=O [Compound I-239],< 500 nM,< 500 nM,,,< 500 nM,< 500 nM
Cn1cc(-c2cc(C(C)(C)O)ccc2Oc2cccc(N3CC(N(C4CC4)C4CCN(c5ncc(C(=O)N[C@H]6C(C)(C)[C@H](Oc7ccc(C#N)c(Cl)c7)C6(C)C)cn5)CC4)C3)c2F)c2cc[nH]c2c1=O [Compound I-240],500 to 1500 nM,< 500 nM,,,< 500 nM,> 3000 nM
Cn1cc(-c2cc(C(C)(C)O)ccc2Oc2cccc(N3CC(CN4CC5CC4CN5c4ncc(C(=O)N[C@H]5C(C)(C)[C@H](Oc6ccc(C#N)c(Cl)c6)C5(C)C)cn4)C3)c2F)c2cc[nH]c2c1=O (stereo partly shown) [Compound I-241],< 500 nM,< 500 nM,,,< 500 nM,< 500 nM
"Cn1cc(-c2cc(C(C)(C)O)ccc2OC(CCCCCN2CCN(c3ncc(C(=O)NC4C(C)(C)C(Oc5ccc(C#N)c(Cl)c5)C4(C)C)cn3)CC2)C2CC2)c2cc[nH]c2c1=O (stereo not shown) [Compound I-243, N-[3-(3-chloro-4-cyano-phenoxy)-2,2,4,4-tetramethyl-cyclobutyl]-2-[4-[6-cyclopropyl-6-[4-(1-hydroxy-1-methyl-ethyl)-2-(6-methyl-7-oxo-1H-pyrrolo[2,3-c]pyridin-4-yl)phenoxy]hexyl]piperazin-1-yl]pyrimidine-5-carboxamide]",,,< 500 nM,500 to 1500 nM,< 500 nM,500 to 1500 nM
Cn1cc(-c2cc(C(C)(C)O)ccc2OC(CCCOC2CCN(c3ncc(C(=O)N[C@H]4C(C)(C)[C@H](Oc5ccc(C#N)c(Cl)c5)C4(C)C)cn3)CC2)C2CC2)c2cc[nH]c2c1=O (stereo partly shown) [Compound I-244],< 500 nM,500 to 1500 nM,,,< 500 nM,500 to 1500 nM
Cn1cc(-c2cc(C(C)(C)O)ccc2Oc2ccc(C3(NC4CCN(c5ncc(C(=O)N[C@H]6C(C)(C)[C@H](Oc7ccc(C#N)c(Cl)c7)C6(C)C)cn5)CC4)COC3)cc2)c2cc[nH]c2c1=O [Compound I-246],< 500 nM,500 to 1500 nM,,,< 500 nM,< 500 nM
Cn1cc(-c2cc(C(C)(C)O)ccc2OC(CCCCOC2CCN(c3ncc(C(=O)N[C@H]4C(C)(C)[C@H](Oc5ccc(C#N)c(Cl)c5)C4(C)C)cn3)CC2)C2CC2)c2cc[nH]c2c1=O (stereo partly shown) [Compound I-251],500 to 1500 nM,500 to 1500 nM,,,< 500 nM,500 to 1500 nM
Cn1cc(-c2cc(C(C)(C)O)ccc2Oc2cccc(N3CC(CN4C5CCC4CC(c4ncc(C(=O)N[C@H]6C(C)(C)[C@H](Oc7ccc(C#N)c(Cl)c7)C6(C)C)cn4)C5)C3)c2F)c2cc[nH]c2c1=O (stereo partly shown) [Compound I-258],,,< 500 nM,< 500 nM,< 500 nM,500 to 1500 nM
Cn1cc(-c2cc(C(C)(C)O)ccc2OCC(CCOC2CCN(c3ncc(C(=O)N[C@H]4C(C)(C)[C@H](Oc5ccc(C#N)c(Cl)c5)C4(C)C)cn3)CC2)C2CC2)c2cc[nH]c2c1=O (stereo partly shown) [Compound I-265],500 to 1500 nM,1500 to 3000 nM,,,< 500 nM,500 to 1500 nM
"Cn1cc(-c2cc(C(C)(C)O)ccc2OC2CCC(N3CC(OC4CCN(c5ncc(C(=O)NC6C(C)(C)C(Oc7ccc(C#N)c(Cl)c7)C6(C)C)cn5)CC4)C3)C2)c2cc[nH]c2c1=O (stereo not shown) [Compound I-266, N-[3-(3-chloro-4-cyano-phenoxy)-2,2,4,4-tetramethyl-cyclobutyl]-2-[4-[1-[3-[4-(1-hydroxy-1-methyl-ethyl)-2-(6-methyl-7-oxo-1H-pyrrolo[2,3-c]pyridin-4-yl)phenoxy]cyclopentyl]azetidin-3-yl]oxy-1-piperidyl]pyrimidine-5-carboxamide]",,,< 500 nM,500 to 1500 nM,< 500 nM,1500 to 3000 nM
Cn1cc(-c2cc(C(C)(C)O)ccc2OCC2(C(=O)N3CC(OC4CCN(c5ncc(C(=O)N[C@H]6C(C)(C)[C@H](Oc7ccc(C#N)c(Cl)c7)C6(C)C)cn5)CC4)C3)CC2)c2cc[nH]c2c1=O [Compound I-267],< 500 nM,500 to 1500 nM,,,< 500 nM,500 to 1500 nM

# The next lines start with results.
GI50 [3],GI50 [4],GI50 ([3]; Homo sapiens),GI50 ([4]; Homo sapiens),SMILES,GI50 [1],GI50 [2]
< 500 nM,< 500 nM,,,CCS(=O)(=O)c1ccc(OC(CCCCCN2CCN(c3ncc(C(=O)N[C@H]4C(C)(C)[C@H](Oc5ccc(C#N)c(Cl)c5)C4(C)C)cn3)CC2)C2CC2)c(-c2cn(C)c(=O)c3[nH]ccc23)c1 (stereo partly shown) [Compound I-235],< 500 nM,< 500 nM
< 500 nM,< 500 nM,,,CCS(=O)(=O)c1ccc(OC(CCCOC2CCN(c3ncc(C(=O)N[C@H]4C(C)(C)[C@H](Oc5ccc(C#N)c(Cl)c5)C4(C)C)cn3)CC2)C2CC2)c(-c2cn(C)c(=O)c3[nH]ccc23)c1 (stereo partly shown) [Compound I-236],< 500 nM,< 500 nM
< 500 nM,< 500 nM,,,CCS(=O)(=O)c1ccc(OCC(CCOC2CCN(c3ncc(C(=O)N[C@H]4C(C)(C)[C@H](Oc5ccc(C#N)c(Cl)c5)C4(C)C)cn3)CC2)C2CC2)c(-c2cn(C)c(=O)c3[nH]ccc23)c1 (stereo partly shown) [Compound I-242],< 500 nM,< 500 nM
,,500 to 1500 nM,500 to 1500 nM,"Cn1cc(-c2cc(S(C)(=O)=O)ccc2Oc2cccc(CCCC3CCN(c4ncc(C(=O)NC5C(C)(C)C(Oc6ccc(C#N)c(Cl)c6)C5(C)C)cn4)CC3)c2)c2cc[nH]c2c1=O (stereo not shown) [Compound I-249, N-[3-(3-chloro-4-cyano-phenoxy)-2,2,4,4-tetramethyl-cyclobutyl]-2-[4-[3-[3-[2-(6-methyl-7-oxo-1H-pyrrolo[2,3-c]pyridin-4-yl)-4-methyl-sulfonyl-phenoxy]phenyl]propyl]-1-piperidyl]pyrimidine-5-carboxamide]",< 500 nM,> 3000 nM
500 to 1500 nM,< 500 nM,,,Cn1cc(-c2cc(S(C)(=O)=O)ccc2Oc2cccc(CCCC3CCN(c4ncc(C(=O)N[C@H]5C(C)(C)[C@H](Oc6ccc(C#N)c(Cl)c6)C5(C)C)cn4)CC3)c2F)c2cc[nH]c2c1=O [Compound I-250],< 500 nM,> 3000 nM
,,< 500 nM,< 500 nM,CCS(=O)(=O)Cc1ccc(Oc2cccc(OCCCC3CCN(c4ncc(C(=O)N[C@H]5C(C)(C)[C@H](Oc6ccc(C#N)c(Cl)c6)C5(C)C)cn4)CC3)c2)c(-c2cn(C)c(=O)c3[nH]ccc23)c1 [Compound I-257],< 500 nM,< 500 nM
< 500 nM,< 500 nM,,,Cn1cc(-c2cc(C(C)(C)O)ccc2Oc2ccc(CCN3CC4(C3)CN(c3ncc(C(=O)N[C@H]5C(C)(C)[C@H](Oc6ccc(C#N)c(Cl)c6)C5(C)C)cn3)C4)cc2)c2cc[nH]c2c1=O [Compound I-259],< 500 nM,500 to 1500 nM
< 500 nM,< 500 nM,,,CCS(=O)(=O)c1ccc(Oc2ccc(CN3CC4(C3)CN(c3ncc(C(=O)N[C@H]5C(C)(C)[C@H](Oc6ccc(C#N)c(Cl)c6)C5(C)C)cn3)CCO4)cc2)c(-c2cn(C)c(=O)c3[nH]ccc23)c1 [Compound I-261],< 500 nM,< 500 nM
< 500 nM,< 500 nM,,,CCS(=O)(=O)c1ccc(Oc2ccc(CCN3CC4(C3)CN(c3ncc(C(=O)N[C@H]5C(C)(C)[C@H](Oc6ccc(C#N)c(Cl)c6)C5(C)C)cn3)CCO4)cc2)c(-c2cn(C)c(=O)c3[nH]ccc23)c1 [Compound I-262],< 500 nM,< 500 nM
,,< 500 nM,< 500 nM,CCS(=O)(=O)Cc1ccc(Oc2cccc(CCCCC3CCN(c4ncc(C(=O)N[C@H]5C(C)(C)[C@H](Oc6ccc(C#N)c(Cl)c6)C5(C)C)cn4)CC3)c2)c(-c2cn(C)c(=O)c3[nH]ccc23)c1 [Compound I-263],< 500 nM,> 3000 nM
,,< 500 nM,< 500 nM,CCS(=O)(=O)c1ccc(Oc2cccc(CCN3CC4(C3)CN(c3ncc(C(=O)N[C@H]5C(C)(C)[C@H](Oc6ccc(C#N)c(Cl)c6)C5(C)C)cn3)CCO4)c2F)c(-c2cn(C)c(=O)c3[nH]ccc23)c1 [Compound I-264],< 500 nM,< 500 nM
,,< 500 nM,< 500 nM,"CCS(=O)(=O)c1ccc(OC2CC(CCN3CCC4(CCN(c5ncc(C(=O)N[C@H]6C(C)(C)[C@H](Oc7ccc(C#N)c(Cl)c7)C6(C)C)cn5)C4)C3)C2)c(-c2cn(C)c(=O)c3[nH]ccc23)c1 (stereo partly shown) [Compound I-270, N-[3-(3-chloro-4-cyano-phenoxy)-2,2,4,4-tetramethyl-cyclobutyl]-2-[7-[2-[3-[4-ethylsulfonyl-2-(6-methyl-7-oxo-1H-pyrrolo[2,3-c]pyridin-4-yl)phenoxy]cyclobutyl]ethyl]-2,7-diazaspiro[4.4]nonan-2-yl]pyrimidine-5-carboxamide]",< 500 nM,500 to 1500 nM
